Data on three compounds can be found in patent US20200282009A1, “METHODS OF TREATING DISEASES ASSOCIATED WITH VASCULAR SMOOTH MUSCLE CELL PROLIFERATION” (BioLineRx Ltd., priority 2017, published 2020).

Common to all, as to type: cell-based, human
The subject of data set [1] is SK-N-BE(2) cells. Kind of data set: Soft agar colony assay. The conditions noted are these: CXCL12 100 ng/ml, 14 days. On the procedure:
An agar base layer was prepared as follows: 45 mL RPMI plus 12% FCS was mixed with 15 mL RPMI 32 plus 12% FCS and 15 mL 2.5% agar in double-distilled water. The tumor cells were suspended in RPMI plus 10% FCS. Cell suspension was mixed in a ratio of 1:3 with the agar base solution. This mixture was then plated on top of a preformed solid agar base. CXCL12 (100 ng/mL) or BL-8040 (20 μM) or anti-CXCR4 (1 μg/ml) were added to the mixture. Fourteen days later, the number of colonies was counted in 10 different fields.

Data set [2] deals with SK-N-BE(2) cells. As to the kind of experiment: Cell proliferation assay with CXCL12. As to the method:
(§1) Cells were seeded at 2×10^4 cells/1 ml per well into a 24-well plate in medium supplemented with 0.1% FCS with or without various concentrations of CXCL12 (PeproTech EC). On days 2, 4 and 7, cells were harvested, stained with propidium iodide (PI, Sigma), and the number of viable cells was determined using FACS analysis.

A further data set relates to Shy-SY5Y cells. Kind of data set: Cell proliferation assay with CXCL12. The conditions noted are these: CXCL12 500 ng/ml. As to the method: as §1
The next data set relates to SK-N-BE(2)-CXCR4 cells. Kind of data set: Cell survival assay (PI staining, FACS). The conditions noted are these: SK-N-BE(2)-CXCR4 compared to native cell line; 0-10 μM, 24 hours. As to the method:
A total of 1×10^5 cells/mL were cultured in 24-well plates with […] RPMI 1640 medium supplemented with 10% FCS. 24 hours later, the medium was changed to RPMI 1640 supplemented with either 1% FCS, with BL-8040 or AMD3100 or ABT199. Then 24 hours later, the cells were harvested, washed, and stained with PI (Sigma). The number of live cells was counted and analyzed using FACS analysis.
In order to stably overexpress CXCR4, SK-N-BE(2) cells were transduced with the lentiviral bicistronic vector harboring a CXCR4 expression cassette. This was done using a three-plasmid system: pHR′-CMVCXCR4-IRES-GFP-WPRE; envelope coding plasmid VSV-G and a packaging construct CMVDR8.91 according to previously published protocol (23). For transduction of SK-N-BE(2) cells, 1 ml of viral supernatant was used, which is equivalent to an m.o.i. of ˜9.

Data set [3] has as its system BCL-2 and CCND1 in SK-N-BE(2) cells. Kind of data set: qPCR of target genes after miR transfection. On the procedure:
cDNA was synthesized from 0.5-1 μg total RNA using the Quanta Biosciences qScript™ cDNA Synthesis Kit (95047-100) for mRNA analysis, and using the qScript™ microRNA cDNA Synthesis Kit (95107-100) for miRNAs analysis. Quantiative PCR (qPCR) of miRNAs and mRNA was performed using the CFX384, C1000 touch thermal cycler (Bio-Rad) and a SYBR Green PCR Kit: Quanta Cat. #84018 and #84071, respectively. The fold expression and statistical significance were calculated using the 2-ΔΔ Ct method. All experiments were performed in triplicate.
Transfections were performed using Lipofectamine 2000 transfection reagent (Invitrogen) according to the manufacturer's protocol. Plasmids were purchased from Dharmacon. MiR-15a: miRIDIAN microRNA hsa-miR-15a-5p mimic. MiR-16-1: miRIDIAN microRNA hsa-miR-16-5p mimic. Negative control miR: miRIDIAN microRNA inhibitor negative control. AntagomiR-15a: miRIDIAN microRNA hsa-miR-15a-5p hairpin inhibitor. AntagomiR-16-1: miRIDIAN microRNA hsa-miR-16-5p hairpin inhibitor. AntagomiR negative control: miRIDIAN microRNA hairpin inhibitor negative control 1. All miRNA-mimics and antagomiRs were transfected at 50 nM or 100 nM. To determine the efficiency of transfection, at 48 hours post-transfection, the cells were analyzed for RNA.

Regarding “CXCL12: the ligand of CXCR4 (PeproTech EC)”, in the data set with SK-N-BE(2) cells [1], the “colony formation with CXCL12” value is listed as “high colony formation ability”. The “proliferation with CXCL12” value in the data set on SK-N-BE(2) cells [2] is “no response”; in the data set with Shy-SY5Y cells, “increased proliferation”. Consider `CC1(C)CCC(CN2CCN(c3ccc(C(=O)NS(=O)(=O)c4ccc(NCC5CCOCC5)c([N+](=O)[O-])c4)c(Oc4cnc5[nH]ccc5c4)c3)CC2)=C(c2ccc(Cl)cc2)C1` [ABT-199, reference compound], for which the “resistance to the BCL-2 inhibitor (viability)” value in the data set with SK-N-BE(2)-CXCR4 cells is recorded as “high resistance”.

As to “miR-16-1: miRIDIAN microRNA hsa-miR-16-5p mimic (guide TAGCAGCACGTAAATATTGGCG; mimic duplex; passenger strand missing)”, the “level of both target genes (BCL-2 and CCND1) after transfection” value in data set [3] is “reduction”.
